From US11160836B2, “Transgenic pig islets and uses thereof for treating diabetes” (priority 2014, dated 2021)

Legend:
MIN6 cells = assay: Glucose-induced insulin secretion from transfected MIN6 cells, static incubation; assay type: cell-based, murine; conditions: MIN6 cells 48 h after plasmid transfection; 2 h in 1 or 15 mM glucose; control cells 2.2
Procedure: FIG. 2 is a histogram showing glucose-induced insulin secretion from transfected Min6 cells incubated with 1 (G1) or 15 mM (G15) glucose. The numbers above pairs of columns represent the stimulation ratio (G15/G1) in each group. * p<0.05 indicates significant difference between test groups and controls. Values are means±SEM for n=15-21 from 7 different experiments.
To verify the effect of the transgenic proteins on insulin secretion, transfected and control MIN6 cells were challenged by an increase of glucose concentration during static incubation experiments. Insulin secretion was measured and the stimulation index i.e., the ratio between insulin secretion at high glucose and insulin secretion at low glucose, of transgenic and control cells was calculated. In brief, 2·10^5 cells were seeded in 12-well plates and cultivated for 48 h before they were transfected with one the plasmids carrying the GLP-1 (7-37) gene (GLP-1), the mutated GLP-1 (7-A8S-37) gene (GLP-1 Ser8) or the constitutively activated muscarinic receptor gene (M3). Control cells were simply exposed to Lipofectamine without any plasmidic DNA. 48 h after transfection, cells were starved then incubated for 2 h in a 1 mL Krebs-Ringer buffer containing either 1 or 15 mM glucose. Insulin secretion was measured in the incubation media and expressed as a percentage of total insulin content of the cells.

adult pig islets = assay: Dynamic islet perifusion, glucose-induced insulin secretion of virus-treated adult pig islets; assay type: cell-based; conditions: adenoviral vector MOI 200, 48 h, perifused G1 then 30 min G15
Procedure: FIG. 4 is a graph showing the insulin secretion of isolated adult pig islets exposed to 200 MOI viral expression vectors carrying sequences coding for GLP-1 (GLP-1 Ser8), activated muscarinic receptor (M3R) or both (GLP-1+M3R) during 48 hours. Batches of 600 islets were perifused in krebs medium containing 1 mM glucose (G1) then 15 mM glucose (G15) as indicated on top of the figure. Insulin secretion was then measured in the effluent fractions. Values are means±SEM for n=3-4 from 4 different preparations.
The effect of transgenic PKA and PKC activation on glucose-induced insulin secretion was also tested during dynamic islet perifusion experiments. Control and virus-treated adult islets were placed in perifusion chambers sealed with 0.2 μm filters. Islets were first perifused with 1 mM glucose (G1) krebs medium during 30 minutes for equilibrium then during 10 minutes in G1 with media collection every 2 minutes followed by 30 minutes stimulation with G15.

isolated pig islets = assay: Glucose-induced insulin secretion from isolated pig islets, static incubation with pharmacological PKC/PKA activators; assay type: cell-based; conditions: 2 h, PMA 20 nM and/or forskolin 1 μM
Procedure: FIG. 1 is a histogram showing the insulin secretion from adult and neonate isolated pig islets. […] Insulin secretion was measured in the incubation media and expressed as a percentage of total insulin content of each batch of islets. The numbers above the columns represent the fold increase of insulin secretion in test groups compared to 15 mM glucose alone. * p<0.05. […] Finally, insulin was quantified in recovered media and in incubated islets by radioimmuno-assay.

## GLP-1
MIN6 cells
  stimulation index (insulin secretion G15/G1): 2.6
Adult pig islets
  effect on acute glucose-induced insulin secretion during perifusion, in words: virtually no effect

## CCCCCCCCCCCCCC(=O)O[C@@H]1[C@@H](C)[C@@]2(O)[C@@H](C=C(CO)C[C@]3(O)C(=O)C(C)=C[C@@H]23)[C@@H]2C(C)(C)[C@]12OC(C)=O [PMA, phorbol myristate acetate]
Isolated pig islets; islets from adult pigs
  fold increase of insulin secretion compared to 15 mM glucose alone: 2 fold
Isolated pig islets; islets from neonate pigs
  fold increase of insulin secretion compared to 15 mM glucose alone: up to 8 fold
